System: female in-patients with primary degenerative dementia (Alzheimer like)
Assay: 8-day GRF (1-29) NH2 therapy, MMS Folstein test and Crichton's scale
Assay type: in vivo, human
Details: for MMS Folstein and Crichton's scale scores and clinical findings: 8 days, 12 hours, 24 hours, 7 days
Method: Twenty female in-patients with primary degenerative dementia (Alzheimer like) aged 67-84 years were divided in two therapy-groups with GRF (1-29) NH2. All patients were treated with this product for 8 days with either of the following schedules: (I) 250 mcg s.c. twice daily (II) 50 mcg i.v. twice daily Therapy was started after a 15-day wash-out period for psychotropic-drugs. Evolution of patients was assessed using the MMS Folstein test and Chrichton's scale test at 12 hours, 24 hours and 7 days after starting with GRF. The statistical evaluation was made using Friedman test with a risk level p<0,01 (highly significant differences).

growth hormone releasing factor [GRF]
comparison of i.v. and s.c. groups (increase in scores and clinical findings) (GRF (1-29) NH2 50 mcg i.v. vs 250 mcg s.c. twice daily): more important in the group with i.v. GRF administration than in the one with s.c. administration
persistence of effect (GRF (1-29) NH2, both groups): remains significant over the whole 7 days of treatment
start of effect after administration (GRF (1-29) NH2, both groups): 12 h
sphincter control and general psychomotricity after discontinuation (GRF (1-29) NH2 administration discontinued): returned to pretreatment situation
sphincter control and general psychomotricity (nurse's report) (during treatment with GRF (1-29) NH2): improvement
MMS Folstein and Crichton's scale scores and clinical findings (group I: GRF (1-29) NH2 250 mcg s.c. twice daily): significant increase
MMS Folstein and Crichton's scale scores and clinical findings (group II: GRF (1-29) NH2 50 mcg i.v. twice daily): significant increase
